Patent US20050054696A1, “Indole compounds and medicinal use thereof” (priority 2001, published 2005)

Experiments:
[1] = biological target: T1, recombinant human liver glycogen phosphorylase (HLGPa) (Homo sapiens, UniProt P06737); test: Measurement of liver glycogen phosphorylase activity (enzyme inhibitory activity against HLGPa); format: biochemical; settings: Sf9 cell lysate expressing recombinant enzyme; reverse reaction (glycogen synthesis from G1-P), phosphate by malachite green, 60 min room temperature
T1 construct: made in house; host or cells: Sf9 insect cells (unpurified cell lysate used as enzyme solution)
T1 sequence (P06737 1-847): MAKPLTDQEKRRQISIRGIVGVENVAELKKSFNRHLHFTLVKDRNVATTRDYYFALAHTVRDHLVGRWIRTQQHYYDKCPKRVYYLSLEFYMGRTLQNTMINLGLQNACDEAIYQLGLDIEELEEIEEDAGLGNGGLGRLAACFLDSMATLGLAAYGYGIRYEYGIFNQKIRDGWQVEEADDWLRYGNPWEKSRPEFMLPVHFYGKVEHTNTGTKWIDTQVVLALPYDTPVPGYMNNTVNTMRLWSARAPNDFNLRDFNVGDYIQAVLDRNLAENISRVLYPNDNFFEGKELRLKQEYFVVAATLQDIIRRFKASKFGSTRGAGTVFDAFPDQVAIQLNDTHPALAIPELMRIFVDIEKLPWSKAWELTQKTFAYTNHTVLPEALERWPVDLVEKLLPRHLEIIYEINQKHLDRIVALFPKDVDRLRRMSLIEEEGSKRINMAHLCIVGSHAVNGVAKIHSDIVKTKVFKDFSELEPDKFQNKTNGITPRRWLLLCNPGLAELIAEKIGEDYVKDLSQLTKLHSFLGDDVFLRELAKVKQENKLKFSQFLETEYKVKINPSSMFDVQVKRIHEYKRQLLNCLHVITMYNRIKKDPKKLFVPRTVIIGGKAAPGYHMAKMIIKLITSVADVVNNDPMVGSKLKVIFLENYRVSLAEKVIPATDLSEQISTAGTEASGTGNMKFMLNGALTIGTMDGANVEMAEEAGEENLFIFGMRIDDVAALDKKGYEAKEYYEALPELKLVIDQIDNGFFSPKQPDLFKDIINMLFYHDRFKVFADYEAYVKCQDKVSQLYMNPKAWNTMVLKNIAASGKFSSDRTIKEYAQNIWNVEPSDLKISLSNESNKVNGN
Summary of the method: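 Activity was run in the reverse, glycogen-synthesis direction, using Sf9 lysate expressing recombinant human liver glycogen phosphorylase (enzyme solution 80 μg/mL protein, pH 7.0). Substrate solution was Tris pH 7.2 with 1.25 mM glucose-1-phosphate, 2.5 mg/ml glycogen and 7.5 mM glucose, reacted 60 min at room temperature. Released phosphate was measured by malachite green A650, with % inhibition taken against DMSO control and no-enzyme blank.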

db/db mice = test: Measurement of plasma glucose concentration in obesity type diabetes model db/db mice; format: in vivo; settings: Mus musculus, po; plasma glucose 1 and 3 hr after administration, after fasting for 4 hr; significant difference vs solvent group (Dunnett's test); read-out: Minimum effective dose db/db mouse
Method: Measurement Method of Plasma Glucose Concentration
Using obesity type diabetes model db/db mice, the effect of the compound (1) of the present invention on glucose concentration in plasma was examined. The glucose concentration in the plasma of db/db mice (10-15 weeks of age) was measured, and the mice were grouped into 5 mice per group such that the average glucose concentration of plasma is leveled. After fasting for 4 hr, the test drug or a solvent (0.5% methyl cellulose) was orally administered to db/db mice, and plasma glucose concentration at 1 and 3 hr after the administration was measured. The hypoglycemic effect of the test drug was evaluated by detecting a significant difference every hour between the solvent administration group and the test drug administration group (Dunnett's test).

Work on O=C(NN1C(=O)N[C@@H](c2ccccc2)C1=O)c1cc2cc(Cl)ccc2[nH]1 (stereo in doubt) [Example 4, N-(2,4-dioxo-5-phenylimidazolidin-3-yl)-5-chloro-1H-indole-2-carboxamide] yielded an IC50 [1] of 85 nM and a minimal effective dose (db/db mice) of 10 mg/kg.
COc1ccc([C@@H]2NC(=O)N(NC(=O)c3cc4cc(Cl)ccc4[nH]3)C2=O)cc1 [Example 4-19, 5-chloro-1H-indole-2-carboxylic acid ((4S)-2,5-dioxo-4-(4-methoxyphenyl)imidazolidin-1-yl)amide] was tested, and the IC50 [1] was 96 nM and the minimal effective dose (db/db mice) was 10 mg/kg.
Cl.N=C(NNC(=O)c1cc2cc(Cl)ccc2[nH]1)c1ccccc1F [Example 6-19, 5-chloro-1H-indole-2-carboxylic acid 2-((2-fluorophenyl)-imino-methyl)hydrazide hydrochloride] was tested, and the IC50 [1] was 53 nM and the minimal effective dose (db/db mice) was 3 mg/kg.
CS(=O)(=O)O.N=C(Cc1ccccc1)NNC(=O)c1cc2cc(Cl)ccc2[nH]1 [Example 6-21] showed a minimal effective dose (db/db mice) of 10 mg/kg.
For O=C(NN1C(=O)CCNC1=O)c1cc2cc(Cl)ccc2[nH]1 [Example 3, N-(2,4-dioxo-perhydropyrimidin-3-yl)-5-chloro-1H-indole-2-carboxamide], the IC50 [1] was over 100 nM and the minimal effective dose (db/db mice) was 10 mg/kg.
Cc1ccc2[nH]c(C(=O)Nn3c(=O)[nH]c4cc(F)ccc4c3=O)cc2c1 [Example 2-24, 5-methyl-1H-indole-2-carboxylic acid (7-fluoro-1,2,3,4-tetrahydro-2,4-dioxoquinazolin-3-yl)amide] was tested, and the IC50 [1] was 17 nM and the minimal effective dose (db/db mice) was 3 mg/kg.
Work on Cc1ccc2[nH]c(C(=O)Nn3c(=O)[nH]c4ccccc4c3=O)cc2c1 [Example 2-23, 5-methyl-1H-indole-2-carboxylic acid (1,2,3,4-tetrahydro-2,4-dioxoquinazolin-3-yl)amide] yielded an IC50 [1] of 24 nM and a minimal effective dose (db/db mice) of 3 mg/kg.
For CS(=O)(=O)O.N=C(NNC(=O)c1cc2cc(Cl)ccc2[nH]1)c1ccccc1 [Example 6-17, 5-chloro-1H-indole-2-carboxylic acid 2-(imino-phenyl-methyl)hydrazide methanesulfonate], the IC50 [1] was 80 nM and the minimal effective dose (db/db mice) was 3 mg/kg.
For Cc1ccc(C(=O)NNC(=O)c2cc3cc(Cl)ccc3[nH]2)s1 [Example 1-88, 5-methylthiophene-2-carboxylic acid 2-(5-chloro-1H-indole-2-carbonyl)hydrazide], the IC50 [1] was 20 nM and the minimal effective dose (db/db mice) was 10 mg/kg.
For O=C(Nn1c(=O)[nH]c2cccc(Cl)c2c1=O)c1cc2cc(Cl)ccc2[nH]1 [Example 2-17, 5-chloro-1H-indole-2-carboxylic acid (5-chloro-1,2,3,4-tetrahydro-2,4-dioxoquinazolin-3-yl)amide], the IC50 [1] was 37 nM and the minimal effective dose (db/db mice) was 10 mg/kg.
Compound Cc1cccc(C(=N)NNC(=O)c2cc3cc(Cl)ccc3[nH]2)c1 [Example 1-134, 5-chloro-1H-indole-2-carboxylic acid 2-(imino-(m-tolyl)-methyl)hydrazide] has an IC50 [1] of 40 nM and a minimal effective dose (db/db mice) of 10 mg/kg.
In the case of Cl.N=C(NNC(=O)c1cc2cc(Cl)ccc2[nH]1)c1ccccc1 [Example 6, 5-chloro-1H-indole-2-carboxylic acid 2-(imino-phenyl-methyl)hydrazide hydrochloride], the IC50 [1] is reported as 62 nM and the minimal effective dose (db/db mice) is reported as 3 mg/kg.
For O=C(NNC(=O)c1cc2cc(Cl)ccc2[nH]1)c1c[nH]cn1 [Example 1-81, 1H-imidazole-4-carboxylic acid 2-(5-chloro-1H-indole-2-carbonyl)hydrazide], the IC50 [1] was 28 nM and the minimal effective dose (db/db mice) was 10 mg/kg.
Compound Nc1ccccc1C(=O)NNC(=O)c1cc2cc(Cl)ccc2[nH]1 [Example 1-2, 2-Aminobenzoic acid 2-(5-chloro-1H-indole-2-carbonyl)hydrazide] has an IC50 [1] of 13 nM and a minimal effective dose (db/db mice) of 10 mg/kg.
CS(=O)(=O)O.N=C(NNC(=O)c1cc2cc(Cl)ccc2[nH]1)c1ccccc1F [Example 6-20, 5-chloro-1H-indole-2-carboxylic acid 2-((2-fluorophenyl)-imino-methyl)hydrazide methanesulfonate] gave an IC50 [1] of 110 nM and a minimal effective dose (db/db mice) of 3 mg/kg.
O=C(NN1C(=O)N[C@H](c2ccccc2)C1=O)c1cc2cc(Cl)ccc2[nH]1 [Example 4-6, 5-chloro-1H-indole-2-carboxylic acid ((4R)-2,5-dioxo-4-phenylimidazolidin-1-yl)amide] gave an IC50 [1] of 65 nM and a minimal effective dose (db/db mice) of 10 mg/kg.
O=C(NN1C(=O)NC(c2ccc(F)cc2)C1=O)c1cc2cc(Cl)ccc2[nH]1 (stereo not shown) [Example 4-16, 5-chloro-1H-indole-2-carboxylic acid (2,5-dioxo-4-(4-fluorophenyl)imidazolidin-1-yl)amide] was tested, and the minimal effective dose (db/db mice) was 10 mg/kg.
N=C(NNC(=O)c1cc2cc(Cl)ccc2[nH]1)c1ccccc1Cl.O=C(O)/C=C\C(=O)O [Example 6-18, 5-chloro-1H-indole-2-carboxylic acid 2-((2-chlorophenyl)-imino-methyl)hydrazide butenedioic acid salt] showed an IC50 [1] of 49 nM and a minimal effective dose (db/db mice) of 3 mg/kg.
